Source: PMC4794675, “Generation and Characterization of Monoclonal Antibodies against a Cyclic Variant of Hepatitis C Virus E2 Epitope 412-422” (Journal of Virology, 2016)
Bridge positions count the residues as written; N and C are the ends. Peptide text beside a SMILES is read from it.

Test system: Fab C2
Test: SPR epitope mapping: binding of epitope I peptide variants to immobilized Fab C2
Parameters: species or system mouse; Ka, binding to Fab C2: unit not given here
Conditions: for Ka, binding to Fab C2 / Kd, binding to Fab C2: Fab C2 immobilized on CM5 chip, 25°C; for Kd: read-out: KD, binding to Fab C2, Fab C2 immobilized on CM5 chip, peptides 125 nM to 5 μM, HBS buffer, 25°C, NB = no binding
Experimental: All SPR analyses were performed on a Biacore 3000 instrument from GE Healthcare, using CM5 sensor chips and the HBS buffer certified for use with this instrument (20 mM HEPES, 0.15 M NaCl, pH 7.2, 0.005% polysorbate 20), at 25°C. Immobilization was carried out by means of the canonical amine-coupling chemistry using the surface immobilization wizard procedure operating at 5 μl/min. Channels were activated with a mixture of 1-ethyl-3-(3-dimethylaminopropyl)-carbodiimide and N-hydroxysuccinimide for 7 min; then, the ligand, which had been appropriately diluted in the preselected sodium acetate buffer, was coupled until a typical level of 500 to 600 response units (RU) was achieved. The remaining active ester groups were blocked with 1 M ethanolamine HCl, pH 8.5. […] The same procedure was applied to prepare an sE2-functionalized sensor chip. An IgG1 isotype-matched antibody was used as a negative control at a concentration of 5.0 μM. […] An underivatized surface was prepared on every sensor chip and used as a blank control. All analyses were carried out at a flow rate of 20 μl/min, and a constant volume of 60 μl of protein or peptide solution appropriately diluted in the HBS running buffer was injected.
For every analysis, experimental sensorgrams were aligned, the blank signal was subtracted, and the sensorgrams were overlapped. All mathematical manipulations and fitting of the data were performed using BIAevaluation (version 4.1) software (GE Healthcare).
To further investigate which peptide residues were mostly involved in the binding with the antibodies, we designed and prepared a panel of alanine-mutated cyclic peptides (Table 4). […] All peptides were tested at concentrations ranging from 125 nM to 5 μM.

Structure (SMILES)	Ka, binding to Fab C2 (peptides 125 nM to 5 μM)	Kd, binding to Fab C2 (peptides 125 nM to 5 μM) [M⁻¹ s⁻¹]	Kd [µM]	affinity/binding to Fab C2 relative to wild type (Fab C2 immobilized, peptides 125 nM to 5 μM)
CC[C@H](C)[C@H](NC(=O)[C@H](Cc1c[nH]cn1)NC(=O)[C@H](Cc1c[nH]c2ccccc12)NC(=O)[C@H](CO)NC(=O)CNC(=O)[C@H](CC(N)=O)NC(=O)[C@@H](NC(=O)[C@H](CC(N)=O)NC(=O)[C@@H](NC(=O)[C@H](CC(C)C)NC(=O)[C@H](CCC(N)=O)NC(=O)[C@H](CSC)NC(=O)[C@H](CCCCN)NC(=O)[C@H](CCCCN)NC(C)=O)[C@@H](C)CC)[C@@H](C)O)C(=O)N[C@@H](CSC)C(N)=O [L-epitope I] (Ac-KKC(Me)QLINTNGSWHIC(Me)-NH2; N-terminus and C-terminus assumed)	0	0	> 5	
CC[C@H](C)[C@@H]1NC(=O)[C@H](Cc2c[nH]cn2)NC(=O)[C@H](Cc2c[nH]c3ccccc23)NC(=O)[C@H](CO)NC(=O)CNC(=O)[C@H](CC(N)=O)NC(=O)[C@H]([C@@H](C)O)NC(=O)[C@H](CC(N)=O)NC(=O)[C@H](C)NC(=O)[C@H](C)NC(=O)[C@H](C)NC(=O)[C@@H](NC(=O)[C@H](CCCCN)NC(=O)[C@H](CCCCN)NC(C)=O)CSSC[C@@H](C(N)=O)NC1=O [C-epitope I mutant I] (Ac-KKCAAANTNGSWHIC-NH2; disulfide 3-15; N-terminus and C-terminus assumed)	1.22e+06 s⁻¹	0.553		
CC[C@H](C)[C@@H]1NC(=O)[C@H](Cc2c[nH]cn2)NC(=O)[C@H](Cc2c[nH]c3ccccc23)NC(=O)[C@H](CCC(=O)O)NC(=O)[C@H](CCC(=O)O)NC(=O)[C@H](CC(N)=O)NC(=O)[C@H]([C@@H](C)O)NC(=O)[C@H](CC(N)=O)NC(=O)[C@H]([C@@H](C)CC)NC(=O)[C@H](CC(C)C)NC(=O)[C@H](CCC(N)=O)NC(=O)[C@@H](NC(=O)[C@H](CCCCN)NC(=O)[C@H](CCCCN)NC(C)=O)CSSC[C@@H](C(N)=O)NC1=O [C-epitope I mutant III] (Ac-KKCQLINTNEEWHIC-NH2; disulfide 3-15; N-terminus and C-terminus assumed)	16200 s⁻¹	0.0754		
CC[C@H](C)[C@@H]1NC(=O)[C@H](CC(C)C)NC(=O)[C@H](CCC(N)=O)NC(=O)[C@@H](NC(=O)[C@H](CCCCN)NC(=O)[C@H](CCCCN)NC(C)=O)CSSC[C@@H](C(N)=O)NC(=O)[C@H](C)NC(=O)[C@H](C)NC(=O)[C@H](C)NC(=O)[C@H](CO)NC(=O)CNC(=O)[C@H](CC(N)=O)NC(=O)[C@H]([C@@H](C)O)NC(=O)[C@H](CC(N)=O)NC1=O [C-epitope I mutant IV] (Ac-KKCQLINTNGSAAAC-NH2; disulfide 3-15; N-terminus and C-terminus assumed)	0	0	> 5	abolished
CC[C@H](C)[C@@H]1NC(=O)[C@H](CC(C)C)NC(=O)[C@H](CCC(N)=O)NC(=O)[C@@H](NC(=O)[C@H](CCCCN)NC(=O)[C@H](CCCCN)NC(C)=O)CSSC[C@@H](C(N)=O)NC(=O)[C@H]([C@@H](C)CC)NC(=O)[C@H](Cc2c[nH]cn2)NC(=O)[C@H](Cc2c[nH]c3ccccc23)NC(=O)[C@H](CO)NC(=O)CNC(=O)[C@H](C)NC(=O)[C@H](C)NC(=O)[C@H](C)NC1=O [C-epitope I mutant II] (Ac-KKCQLIAAAGSWHIC-NH2; disulfide 3-15; N-terminus and C-terminus assumed)	3200 s⁻¹	4.73e-05		
